Literature values as cited in PMC5579141.

Assay: not told

| log partition benzene / water | log partition dibutyl ether / water | log partition dichloromethane / water | log partition heptane / water | log partition hexanol / water | log partition nitrobenzene / water | log partition nonanol / water | log partition octane / water | log partition tetrachloromethane / water | log partition toluene / water | log partition trichloromethane / water | SMILES | also measured |
| --- | --- | --- | --- | --- | --- | --- | --- | --- | --- | --- | --- | --- |
| 0.15 log10 | 0.08 log10 | 0.40 log10 | −0.57 log10 | 0.62 log10 | 0.30 log10 | 0.59 log10 | −0.62 log10 | 0.02 log10 | 0.13 log10 | 0.33 log10 | CC(=O)CC(=O)C(F)(F)F | log partition dodecane / water: −0.76 log10; log partition ethylbenzene / water: −0.18 log10; log partition hexane / water: −0.51 log10; log partition pentanol / water: 0.52 log10 |
| 3.05 log10 | 2.36 log10 | 3.48 log10 | 2.03 log10 | 2.48 log10 | 3.19 log10 | 2.43 log10 | 2.00 log10 | 2.77 log10 | 2.91 log10 | 3.50 log10 | CC(=O)CC(=O)c1ccccc1 | log partition 1,2-dichloroethane / water: 3.23 log10; log partition bromobenzene / water: 3.36 log10; log partition chlorobenzene / water: 3.13 log10; log partition cyclohexane / water: 2.11 log10; log partition decane / water: 2.00 log10; log partition decanol / water: 2.38 log10; log partition m-xylene / water: 2.81 log10; log partition nonane / water: 1.97 log10; log partition octanol / water: 2.52 log10 |
